Results: article PMC12032302, “A20 attenuates oxidized self-DNA-mediated inflammation in acute kidney injury” (Signal Transduction and Targeted Therapy, 2025)

Columns and labels:
Tnfaip3 mRNA = Tnfaip3 mRNA in iBMDMs (quantitative PCR); format: cell-based, mouse; details: ox-dsDNA90 or CDNs, BAY11-7082 1 μM, 4 h pretreated, Fig. 4j,k, n = 3
Method: Total RNA was extracted from around 1 × 10^6 cultured cells per population and purified by employing an RNA simple Total RNA Kit (TIANGEN, Cat#DP419), Following column purification, RNA was immediately reversed to cDNA by implementing the PrimeScript reverse transcription reagent kit (Takara, RR047A) according to the manufacturer’s instructions. The concentration of RNA was measured with a NanoDrop 2000 (Thermo Fisher Scientific, USA). Reverse transcription polymerase chain reaction (qRT‒PCR) was performed using SYBR Premix Ex Taq (Takara, CAT#172-5124) in an ABI7500 real-time PCR system (Applied Biosystems, CA). The primer sequences are shown in Supplementary Table 2. Relative gene expression was presented as fold changes normalized by Gapdh using the 2^−ΔΔCt method.

A20 = A20 protein expression in iBMDMs / BMDMs (immunoblot); format: cell-based, mouse
Method: (§1) For immunoblot analysis of kidney tissue, total protein lysates were prepared from renal tissue, which was ground in liquid nitrogen and then added to lysis buffer in a Total Protein Extraction Kit (Signalway Antibody, Cat#PE001). Samples were centrifuged at 12,000 rpm for 15 min at 4 °C, and the supernatant was collected immediately. For immunoblot analysis of cells, cultured cells after treatment were lysed with lysis buffer, which was premixed with protease and phosphatase inhibitors (Signalway Antibody, Cat#PE001). The samples were centrifuged at 12,000 r/min for 15 min at 4 °C, and the supernatant was collected immediately. Ultimately, both types of protein samples were then mixed with 4× Laemmli loading buffer (Bio-Rad, Cat#1610747) and denatured by boiling at 95 °C for 5 min.
Prepared protein samples were subjected to 6-15% SDS polyacrylamide gels and separated according to the protein concentrations. Then, the protein bands were transferred to polyvinylidene difluoride (PVDF) membranes by a wet transfer apparatus (Bio-Rad, USA). […] The protein bands were detected with an enhanced chemiluminescence kit (Millipore, Cat#WBKLS0500) using a gel imaging system (Bio-Rad, USA) for visualization and standardization of the amount of protein loaded. α-Tubulin was used as the internal control.

AKI mice [1] = assay: overall therapeutic effect in AKI mice; format: in vivo, mouse; details: for alleviation of AKI compared with MCC950: DNase I, disulfiram vs NLRP3 inhibitor MCC950
Method: (§2) Aristolochic acid I sodium salt was dissolved in PBS to 1 mg/mL and injected intraperitoneally at a dose of 10 mg/kg (body weight) every 24 h for 3 days; cisplatin was dissolved in PBS to 1.5 mg/mL for one-time intraperitoneal 25 mg/kg injection; LPS (Sigma, Cat#L2630) was dissolved in PBS to 2.5 mg/mL for one-time intraperitoneal 25 mg/kg injection; deoxyribonuclease I (DNase I, Sigma, Cat#SLBV1446) was dissolved in PBS to 1 mg/mL and injected intraperitoneally at a dose of 10 mg/kg at 4 h before cisplatin or AA I injection and every 24 h after injection. Disulfiram (MedChemExpress, CAS:97-77-8) was diluted in corn oil to 12.5 mg/mL and injected 50 mg/kg intraperitoneally every 24 h after cisplatin or AA I administration. Cu(II) (Sigma, Cat#344419) was dissolved in PBS to 30 µg/mL and administered intraperitoneally 6 h before disulfiram at a dose of 0.15 mg/kg; TNF-α (Peprotech, Cat#315-01 A) was dissolved in PBS to 10 µg/mL and injected at 100 µg/kg once through the caudal vein 24 h before cisplatin injection. Metformin (Sigma, Cat#D150959) was dissolved in PBS to 5 mg/mL and injected intraperitoneally at a dose of 50 mg/kg 24 h before cisplatin or AA I injection and every 24 h after injection. MCC950 (MedChem Express, CAS:256373-96-3) was dissolved in PBS to 5 mg/mL and injected intraperitoneally at a dose of 50 mg/kg 12 h before cisplatin or AA I injection and every 12 h after injection; berberine (APExBIO, Cat#N1368) was dissolved in PBS to 5 mg/mL and 5 mg/kg injected intraperitoneally at 36, 24 and 12 h before cisplatin; A20-derived-peptide was dissolved in ddH2O to 3 mg/mL and injected intraperitoneally at a dose of 15 mg/kg 1 h before cisplatin. To supervise the effects of various treatments on survival time and rate, the mice were observed, and survival curves were generated. To investigate the specific mechanisms, whole blood was retrieved from the orbit, serum was separated through centrifugation on the 4th day, and the mice were then sacrificed by cervical dislocation. Mice were randomly assigned in experiments, while there was no blinding during the animal experiments.

GSDMD cleavage in iBMDMs = assay: cleavage of GSDMD in iBMDMs after ox-self-DNA treatment (immunoblot); format: cell-based, mouse; details: AA-DNA with or without MCC950, Fig. 3i
Method: as §1, with “Ultimately, both types of protein samples were then mixed with 4× Laemmli loading buffer (Bio-Rad, Cat#1610747) and denatured by boiling at 95 °C for 5 min.” left out
Prepared protein samples were subjected to 6-15% SDS polyacrylamide gels and separated according to the protein concentrations. […] The protein bands were detected with an enhanced chemiluminescence kit (Millipore, Cat#WBKLS0500) using a gel imaging system (Bio-Rad, USA) for visualization and standardization of the amount of protein loaded. α-Tubulin was used as the internal control.
Self-DNA was isolated from the mouse kidney tissue using a DNeasy®Blood & Tissue Kit (QIAGEN, REF#69504) according to the manufacturer’s instructions. The isolated self-DNA were mixed with PicoGreen reagent, and then detected via employing SpectraMax iD3 microplate reader (Molecular Devices), with 502 nm incident ray and 523 nm emergent light. […]

AKI mice [2] = assay: survival of AKI mice; format: in vivo, mouse; details: n = 10 per group
Method: as §2

AKI mice [3] = assay: tubular injury / renal injury of AKI mice (HE histology); format: in vivo, mouse
Method: (§3) LPS (Sigma, Cat#L2630) was dissolved in PBS to 2.5 mg/mL for one-time intraperitoneal 25 mg/kg injection; deoxyribonuclease I (DNase I, Sigma, Cat#SLBV1446) was dissolved in PBS to 1 mg/mL and injected intraperitoneally at a dose of 10 mg/kg at 4 h before cisplatin or AA I injection and every 24 h after injection. Disulfiram (MedChemExpress, CAS:97-77-8) was diluted in corn oil to 12.5 mg/mL and injected 50 mg/kg intraperitoneally every 24 h after cisplatin or AA I administration. Cu(II) (Sigma, Cat#344419) was dissolved in PBS to 30 µg/mL and administered intraperitoneally 6 h before disulfiram at a dose of 0.15 mg/kg; TNF-α (Peprotech, Cat#315-01 A) was dissolved in PBS to 10 µg/mL and injected at 100 µg/kg once through the caudal vein 24 h before cisplatin injection. […] MCC950 (MedChem Express, CAS:256373-96-3) was dissolved in PBS to 5 mg/mL and injected intraperitoneally at a dose of 50 mg/kg 12 h before cisplatin or AA I injection and every 12 h after injection; berberine (APExBIO, Cat#N1368) was dissolved in PBS to 5 mg/mL and 5 mg/kg injected intraperitoneally at 36, 24 and 12 h before cisplatin; […] To supervise the effects of various treatments on survival time and rate, the mice were observed, and survival curves were generated. To investigate the specific mechanisms, whole blood was retrieved from the orbit, serum was separated through centrifugation on the 4th day, and the mice were then sacrificed by cervical dislocation. Mice were randomly assigned in experiments, while there was no blinding during the animal experiments. Renal function was evaluated based on serum creatinine level and histological features. Serum creatinine was determined in the Clinical Pharmacology Lab, Clinical Trial Center, WCH, SCU. The kidneys were extracted from euthanized mice, immediately fixed with 4% paraformaldehyde, and embedded in paraffin. Furthermore, the samples were cut into 5 µm thick sections. These tissue samples were subjected to hematoxylin-eosin (HE) and […] according to standard protocols with HE reagent (Biosharp, Cat#BL702B, BL703B) and Masson reagent (Servicebio, Cat#G1006-100ML). The pathological changes were detected through optical microscopy, and the tubulointerstitial injury score was determined as previously reported.

NEK7 = details: cited from earlier work
Description: Furthermore, we investigated the potential therapeutic medicines targeting to NEK7 and evaluated their effects on alleviating AKI. […] A ...

AKI mice [4] = assay: renal fibrosis of AKI mice (Masson staining); format: in vivo, mouse; details: mice following injection of cisplatin; berberine 5 mg/kg i.p.; vs PBS
Method: LPS (Sigma, Cat#L2630) was dissolved in PBS to 2.5 mg/mL for one-time intraperitoneal 25 mg/kg injection; deoxyribonuclease I (DNase I, Sigma, Cat#SLBV1446) was dissolved in PBS to 1 mg/mL and injected intraperitoneally at a dose of 10 mg/kg at 4 h before cisplatin or AA I injection and every 24 h after injection. Disulfiram (MedChemExpress, CAS:97-77-8) was diluted in corn oil to 12.5 mg/mL and injected 50 mg/kg intraperitoneally every 24 h after cisplatin or AA I administration. Cu(II) (Sigma, Cat#344419) was dissolved in PBS to 30 µg/mL and administered intraperitoneally 6 h before disulfiram at a dose of 0.15 mg/kg; TNF-α (Peprotech, Cat#315-01 A) was dissolved in PBS to 10 µg/mL and injected at 100 µg/kg once through the caudal vein 24 h before cisplatin injection. […] Renal function was evaluated based on serum creatinine level and histological features. Serum creatinine was determined in the Clinical Pharmacology Lab, Clinical Trial Center, WCH, SCU. […] The pathological changes were detected through optical microscopy, and the tubulointerstitial injury score was determined as previously reported.

AKI mice [5] = assay: serum creatinine of AKI mice; format: in vivo, mouse; details: mice following injection of cisplatin; berberine 5 mg/kg i.p.; vs PBS
Method: as §3

IL-1β = assay: serum IL-1β of AKI mice (ELISA); format: in vivo, mouse; details: Cis or AA I AKI mice; DNase I 10 mg/kg i.p.
Method: Aristolochic acid I sodium salt was dissolved in PBS to 1 mg/mL and injected intraperitoneally at a dose of 10 mg/kg (body weight) every 24 h for 3 days; cisplatin was dissolved in PBS to 1.5 mg/mL for one-time intraperitoneal 25 mg/kg injection; LPS (Sigma, Cat#L2630) was dissolved in PBS to 2.5 mg/mL for one-time intraperitoneal 25 mg/kg injection; deoxyribonuclease I (DNase I, Sigma, Cat#SLBV1446) was dissolved in PBS to 1 mg/mL and injected intraperitoneally at a dose of 10 mg/kg at 4 h before cisplatin or AA I injection and every 24 h after injection. Disulfiram (MedChemExpress, CAS:97-77-8) was diluted in corn oil to 12.5 mg/mL and injected 50 mg/kg intraperitoneally every 24 h after cisplatin or AA I administration. Cu(II) (Sigma, Cat#344419) was dissolved in PBS to 30 µg/mL and administered intraperitoneally 6 h before disulfiram at a dose of 0.15 mg/kg; TNF-α (Peprotech, Cat#315-01 A) was dissolved in PBS to 10 µg/mL and injected at 100 µg/kg once through the caudal vein 24 h before cisplatin injection. […]
To measure the levels of CXCL10, IFN-β, IL-1β, and IL-18, mouse serum or cell culture medium was collected and measured by ELISA (NeoBioscience, China) according to the manufacturer’s instructions.

For `Cc1ccc(S(=O)(=O)/C=C/C#N)cc1` [BAY11-7082], which “increased expression of A20, mRNA level” value (Tnfaip3 mRNA) is on record?
The value was “almost completely inhibited the increased expression of A20 at both the mRNA and protein levels”.

What about the “increased expression of A20, protein level” value (A20; iBMDMs, ox-dsDNA90 or CDNs, BAY11-7082 1 μM, 4 h pretreated, Fig. 4l) of the same molecule?
Its value is “almost completely inhibited the increased expression of A20 at both the mRNA and protein levels”.

And the “increased expression of A20 under ox-DNA stimulation” value (A20; ox-DNA stimulation, BAY11-7082, discussion)?
Its value is “abrogated”.

Which “progression of AKI” value (AKI mice [1]; MCC950 50 mg/kg i.p.) does the source give for `CC(C)(O)c1coc(S(=O)(=O)NC(=O)Nc2c3c(cc4c2CCC4)CCC3)c1` [MCC950] here?
Its value is “significantly alleviated the progression of AKI”.

What about the “cleavage of GSDMD” value (GSDMD cleavage in iBMDMs) of the same molecule?
Its value is “significantly reduced the cleavage of GSDMD”.

What about the survival (AKI mice [2]; mice treated with nephrotoxic drugs (Cis, AA I), MCC950 50 mg/kg i.p. 12 h before and every 12 h after) of the same molecule?
The survival was “improved the survival”.

What about the “tubular injury (in words)” value (AKI mice [3]; mice treated with nephrotoxic drugs (Cis, AA I), MCC950 50 mg/kg i.p.) of the same molecule?
The value was “attenuate tubular injury”.

Which “NEK7 activity (literature)” value (NEK7) does the source give for `COc1ccc2cc3[n+](cc2c1OC)CCc1cc2c(cc1-3)OCO2` [berberine] here?
The value was “inhibit NEK7 activity”.

And the renal fibrosis (AKI mice [4])?
The renal fibrosis was “decreased renal fibrosis”.

What about the survival (AKI mice [2]; mice following injection of cisplatin, berberine 5 mg/kg i.p. at 36, 24 and 12 h before, vs PBS) of the same molecule?
The survival was “improved survival”.

And the “serum creatinine (in words)” value (AKI mice [5])?
Its value is “decreased serum creatinine”.

What about the “renal injury (in words)” value (AKI mice [3]; mice following injection of cisplatin, berberine 5 mg/kg i.p., vs PBS) of the same molecule?
The value was “attenuated renal injury”.

Which “alleviation of AKI compared with MCC950” value (AKI mice [1]) does the source give for `CCN(CC)C(=S)SSC(=S)N(CC)CC` [disulfiram, Disulfiram] here?
Its value is “more effective in alleviating AKI than the NLRP3 inhibitor MCC950”.

And the survival (AKI mice [2]; Cis or AA I mice, disulfiram 50 mg/kg i.p. every 24 h, Cu(II) 0.15 mg/kg i.p. 6 h before disulfiram)?
The survival was “improved survival with effects comparable to those of DNase I”.

Which results are given for deoxyribonuclease I [DNase I]?
therapeutic effect compared to Sting-knockout mice (AKI mice [1]; DNase I 10 mg/kg i.p. 4 h before cisplatin or AA I and every 24 h after): more pronounced compared to that in Sting^−/− mice; alleviation of AKI compared with MCC950 (AKI mice [1]): more effective in alleviating AKI than the NLRP3 inhibitor MCC950; serum level of IL-1β (in words) (IL-1β): significantly reduced serum level of IL-1β
